In brackets after ≈: the same amount, converted by molar mass.

This is an account of results in patent US9556223B2, “Antimicrobial compounds” (priority 2008, dated 2017).

One test deals with S. pyogenes. It is filed as cell-based.
The test system of a further test is E. coli. It is filed as cell-based.
The next test relates to P. aeruginosa. It is filed as cell-based.
A further test relates to C. albicans. It is filed as cell-based.
The test system of test [1] is Staphylococcus aureus, strain ATCC 25923. It is filed as cell-based. As for the experimental part: (§1) MIC determinations on Staphylococcus aureus, strain ATCC 25923, Methicillin resistant Staphylococcus aureus (MRSA) strain ATCC 33591 and Methicillin resistant Staphylococcus epidermidis (MRSE) strain ATCC 27626 were performed by Toslab AS using standard methods. Amsterdam, D. (1996) Susceptibility testing of antimicrobials in liquid media, in Antibiotics in Laboratory Medicine. 4th ed (Lorian, V., Ed.) pp 75-78, Williams and Wilkins Co; Baltimore.

The test system of test [2] is Staphylococcus haemolyticus. Kind of test: Susceptibility testing under planktonic growth condition (MIC). Conditions: E-test (rifampicin: broth microdilution).
Test [3] concerns Staphylococcus epidermidis. The description is as above. To be noted: E-test (rifampicin: broth microdilution).
The next test relates to Staphylococcus aureus. The test is described as above. To be noted: E-test (rifampicin: broth microdilution).
Test [4] deals with Methicillin resistant Staphylococcus aureus (MRSA) strain ATCC 33591. It is filed as cell-based. Here is the method: as §1
Test [5] concerns S. haemolyticus TUH 51-07 biofilm. The experiment in a line: Biofilm imaging, LIVE/DEAD staining, confocal laser scanning microscopy. It is filed as cell-based. As for the experimental part: One ml aliquots of MHIIB-diluted overnight culture was used to grow S. haemolyticus TUH 51-07 biofilm on plastic coverslides (Thermanox, cellculture treated on one side, NUNC) in 24-well dishes (Falcon 3047, Becton Dickinson, N.J., USA) for 24 h. The coverslides were then washed carefully with PBS, moved to a new plate and treated for 24 h with tetracycline 50 mg/L and 500 mg/L, vancomycin 50 mg/L and 500 mg/L, or Compound […] and 500 mg/L. The coverslides were washed again with […] and stained with a LIVE/DEAD kit (Invitrogen Molecular Probes, Eugene, Oreg., USA) following the manufacturer's instructions. This stain contains SYTO 9 (green fluorescent) and propidium iodide (PI; red fluorescent), both binding to DNA. When used alone, the SYTO 9 generally stains all bacteria in a population; both those with intact and those with damaged membranes. In contrast, PI penetrates only bacteria with damaged membranes, causing a reduction in the SYTO 9 stain green fluorescence when both dyes are present. We examined treated and untreated biofilms with a Leica TCS SP5 (Leica Microsystems Cms Gmbh, Mannheim, Germany) confocal laser scanning microscope (CLSM). Images were obtained using a 63×1.2 NA HCX PL APO water immersion lens. For detection of SYTO9 (green channel), we used the 488 nm line of the argon laser and a detection bandwidth of 495-515 nm. […]

Setting [6] is: strain SH TUH 51-07, blood culture.
The mark [7] stands for this setting: strain TUH 51-03, blood culture.
Where [8] appears, read: strain SE RP62A ATCC 35984, blood culture.
[9] abbreviates: strain SE TUH 08-16, blood culture.

`CCCCCCCCCCCCCCCCNC(=O)[C@H](CCCNC(=N)N)NC(=O)[C@H](Cc1c(C(C)(C)C)[nH]c2c(C(C)(C)C)cc(C(C)(C)C)cc12)NC(=O)[C@@H](N)CCCNC(=N)N` [Compound 5]: the “MIC S. pyogenes” value with S. pyogenes worked out at 6 µg/mL (≈ 6.61 µM). Further, the “MIC E. coli” value with E. coli is above 100 µg/mL. Moreover, the “MIC P. aeruginosa” value against P. aeruginosa was above 100 µg/mL. In addition, in the test with C. albicans, the “MIC C. albicans” value was above 100 µg/mL. In addition, in test [1], the “MIC S. aureus” value came out at 5 µg/mL (≈ 5.5 µM).

Regarding `Cc1onc(-c2ccccc2)c1C(=O)N[C@@H]1C(=O)N2[C@@H]1SC(C)(C)[C@@H]2C(=O)O` [OXA, oxacillin], the MIC antibiotics in test [2] (setting [6]) was above 256 µg/mL; in test [2] (setting [7]), above 256 µg/mL; in [3] (setting [8]) it was 8 µg/mL (≈ 19.9 µM); in test [3] (setting [9]) it was 16 µg/mL (≈ 39.9 µM); with Staphylococcus aureus (strain SA PIA 9, joint fluid) it was 1 µg/mL (≈ 2.49 µM); with Staphylococcus aureus (strain SA PIA90, joint fluid) it was 1 µg/mL (≈ 2.49 µM).

`CO[C@H]1/C=C/O[C@@]2(C)Oc3c(C)c(O)c4c(O)c(c(/C=N/N5CCN(C)CC5)c(O)c4c3C2=O)NC(=O)/C(C)=C\C=C\[C@H](C)[C@H](O)[C@@H](C)[C@@H](O)[C@@H](C)[C@H](OC(C)=O)[C@@H]1C` [RIF, rifampicin]: the MIC antibiotics in test [2] (setting [6]) was 0.016 µg/mL (≈ 0.0194 µM); in test [2] (setting [7]), below 0.016 µg/mL; in [3] (setting [8]), below 0.016 µg/mL; in [3] (setting [9]), 0.016 µg/mL (≈ 0.0194 µM); against Staphylococcus aureus (strain SA PIA 9, joint fluid), below 0.016 µg/mL; with Staphylococcus aureus (strain SA PIA90, joint fluid), 0.016 µg/mL (≈ 0.0194 µM).

As for gentamicin, the MIC antibiotics in [2] (setting [6]) came out at 64 µg/mL; in test [2] (setting [7]) it was 64 µg/mL; in test [3] (setting [8]), 8 µg/mL; in test [3] (setting [9]), 256 µg/mL; with Staphylococcus aureus (strain SA PIA 9, joint fluid) it was 1 µg/mL; against Staphylococcus aureus (strain SA PIA90, joint fluid), 0.5 µg/mL.

For `CC(=O)NC[C@H]1CN(c2ccc(N3CCOCC3)c(F)c2)C(=O)O1` [LZD, linezolid], the MIC antibiotics amounted to 0.5 µg/mL (≈ 1.48 µM) in [2] (setting [6]); 0.5 µg/mL (≈ 1.48 µM) in [2] (setting [7]); 1 µg/mL (≈ 2.96 µM) in test [3] (setting [8]); 2 µg/mL (≈ 5.93 µM) in test [3] (setting [9]); 2 µg/mL (≈ 5.93 µM) in the test with Staphylococcus aureus (strain SA PIA 9, joint fluid); 1 µg/mL (≈ 2.96 µM) in the test with Staphylococcus aureus (strain SA PIA90, joint fluid).

Turning to `CC(C)(C)c1cc(C(C)(C)C)c2[nH]c(C(C)(C)C)c(C[C@H](NC(=O)[C@@H](N)CCCNC(=N)N)C(=O)N[C@@H](CCCNC(=N)N)C(=O)NC3CCCC3)c2c1` [Compound 8], the “MIC MRSA” value in [4] was below 15 µg/mL.

In the case of `CN[C@H](CC(C)C)C(=O)N[C@H]1C(=O)N[C@@H](CC(N)=O)C(=O)N[C@H]2C(=O)N[C@H]3C(=O)N[C@H](C(=O)N[C@H](C(=O)O)c4cc(O)cc(O)c4-c4cc3ccc4O)[C@H](O)c3ccc(c(Cl)c3)Oc3cc2cc(c3O[C@@H]2O[C@H](CO)[C@@H](O)[C@H](O)[C@H]2O[C@H]2C[C@](C)(N)[C@H](O)[C@H](C)O2)Oc2ccc(cc2Cl)[C@H]1O` [VAN, vancomycin], the “LIVE/DEAD staining of biofilm cells (green live, red dead)” value in test [5] (24 h treatment at 50 mg/L) is on record as “predominantly green cells (live organisms)”. Moreover, the MIC antibiotics in [2] (setting [6]) was determined as 2 µg/mL (≈ 1.38 µM); in [2] (setting [7]), 4 µg/mL (≈ 2.76 µM); in test [3] (setting [8]), 4 µg/mL (≈ 2.76 µM); in [3] (setting [9]), 2 µg/mL (≈ 1.38 µM); with Staphylococcus aureus (strain SA PIA 9, joint fluid) it was 2 µg/mL (≈ 1.38 µM); against Staphylococcus aureus (strain SA PIA90, joint fluid) it was 2 µg/mL (≈ 1.38 µM).

Turning to `CN(C)[C@@H]1C(=O)C(C(N)=O)=C(O)[C@@]2(O)C(=O)C3=C(O)c4c(O)cccc4[C@@](C)(O)[C@H]3C[C@@H]12` [TET, tetracycline], the “LIVE/DEAD staining of biofilm cells (green live, red dead)” value in [5] (24 h treatment at 500 mg/L) is reported as “a significant part of the cells are still green indicating live bacteria with intact cell membrane”. For the same compound, the MIC antibiotics in test [2] (setting [6]) worked out at 0.5 µg/mL (≈ 1.13 µM); in test [2] (setting [7]) it was 1 µg/mL (≈ 2.25 µM); in test [3] (setting [8]), 0.5 µg/mL (≈ 1.13 µM); in test [3] (setting [9]), 2 µg/mL (≈ 4.5 µM); in the test with Staphylococcus aureus (strain SA PIA 9, joint fluid) it was 0.5 µg/mL (≈ 1.13 µM); against Staphylococcus aureus (strain SA PIA90, joint fluid), 0.5 µg/mL (≈ 1.13 µM).
